# Data: patent US20260158017A1, “KIF18A INHIBITOR” (WIGEN BIOMEDICINE TECHNOLOGY (SHANGHAI) CO., LTD., priority 2021, published 2026)
# Molecular target: T1, Recombinant human KIF18A (1-467His-tagged) protein (Homo sapiens, UniProt Q8NI77)
# T1 construct: Recombinant human KIF18A (1-467His-tagged) protein; His; made in house
# Assay: KIF18A enzyme assay (microtubule-stimulated ATPase activity, ADP-Glo)
# Type: biochemical
# Details: 30 nM KIF18A, 75 μM ATP, 30 μg/mL pig microtubules; read-out: Inhibitory activity against KIF18A IC50
# How it was run: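 Buffer 15 mM Tris pH 7.5, 10 mM MgCl2, 0.01% Pluronic F-68, 1 μM paclitaxel, 30 μg/mL pig microtubules; reactions at room temperature. IC50 from inhibition relative to DMSO.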
# T1 sequence (Q8NI77 1-467): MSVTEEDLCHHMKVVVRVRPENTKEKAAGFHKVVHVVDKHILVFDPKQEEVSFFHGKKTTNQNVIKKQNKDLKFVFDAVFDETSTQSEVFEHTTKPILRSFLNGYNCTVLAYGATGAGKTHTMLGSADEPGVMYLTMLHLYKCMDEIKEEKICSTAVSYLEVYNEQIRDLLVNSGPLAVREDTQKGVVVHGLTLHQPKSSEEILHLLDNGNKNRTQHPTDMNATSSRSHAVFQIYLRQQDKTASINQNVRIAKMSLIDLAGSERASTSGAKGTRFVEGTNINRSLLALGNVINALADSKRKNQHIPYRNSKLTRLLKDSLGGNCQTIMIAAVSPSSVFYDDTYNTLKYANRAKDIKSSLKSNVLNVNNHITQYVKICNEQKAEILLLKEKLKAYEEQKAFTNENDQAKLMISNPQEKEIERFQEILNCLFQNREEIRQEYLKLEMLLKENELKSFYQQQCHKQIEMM
# T1 sequence (P02550 whole entry partner): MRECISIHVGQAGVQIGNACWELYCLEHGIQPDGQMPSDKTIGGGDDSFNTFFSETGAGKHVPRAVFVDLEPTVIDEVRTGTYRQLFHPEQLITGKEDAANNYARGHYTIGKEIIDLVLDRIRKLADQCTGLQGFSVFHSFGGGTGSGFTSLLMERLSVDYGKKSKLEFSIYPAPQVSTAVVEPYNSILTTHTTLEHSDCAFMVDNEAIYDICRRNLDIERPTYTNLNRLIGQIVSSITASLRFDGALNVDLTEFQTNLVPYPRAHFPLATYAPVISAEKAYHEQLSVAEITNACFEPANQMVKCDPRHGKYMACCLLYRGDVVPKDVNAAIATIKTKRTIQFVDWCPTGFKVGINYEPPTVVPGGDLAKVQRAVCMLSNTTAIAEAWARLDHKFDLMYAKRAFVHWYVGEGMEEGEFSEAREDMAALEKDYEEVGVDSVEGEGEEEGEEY
# T1 sequence (P02554 whole entry partner): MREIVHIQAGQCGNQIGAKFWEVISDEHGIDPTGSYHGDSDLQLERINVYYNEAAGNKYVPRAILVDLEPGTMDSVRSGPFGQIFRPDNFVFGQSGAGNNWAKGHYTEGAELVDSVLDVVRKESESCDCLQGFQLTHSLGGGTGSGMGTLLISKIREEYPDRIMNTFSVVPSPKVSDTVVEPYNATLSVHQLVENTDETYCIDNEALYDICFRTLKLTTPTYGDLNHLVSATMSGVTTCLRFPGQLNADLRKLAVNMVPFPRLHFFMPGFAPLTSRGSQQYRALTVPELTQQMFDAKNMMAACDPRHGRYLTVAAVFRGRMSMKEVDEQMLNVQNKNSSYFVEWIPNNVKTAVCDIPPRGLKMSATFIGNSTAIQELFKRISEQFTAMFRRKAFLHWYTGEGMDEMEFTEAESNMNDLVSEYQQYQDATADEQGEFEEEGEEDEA
row,SMILES,IC50
1,CSc1ccc(NC(=O)c2ccc(NS(=O)(=O)CCO)cc2N2CCC3(CC2)CC3)nc1N1CCOCC1 [Compound 604],≤ 0.1 µM
2,CSc1ccc(NC(=O)c2ccc(NS(=O)(=O)[C@@H](C)CO)cc2N2CCC3(CC2)CC3)nc1N1CCC(F)(F)CC1 [Compound 605],≤ 0.1 µM
3,CSc1ccc(NC(=O)c2ccc(NS(=O)(=O)[C@H](C)CO)cc2N2CCC3(CC2)CC3)nc1N1CCC(F)(F)CC1 [Compound 606],≤ 0.1 µM
4,CSc1ccc(NC(=O)c2cnc(NS(=O)(=O)CCO)cc2N2CCC3(CC2)CC3)cc1N1CCC(F)(F)CC1 [Compound 609],≤ 0.1 µM
5,CSc1ccc(NC(=O)c2cnc(NS(=O)(=O)CCO)cc2N2CCC3(CC2)CC3)cc1N1CC(F)(F)C1 [Compound 612],≤ 0.1 µM
6,CSc1ccc(NC(=O)c2cnc(NS(=O)(=O)CCO)cc2N2CCC3(CC2)CC3)cc1OCCC(F)(F)F [Compound 613],≤ 0.1 µM
7,CSc1ccc(NC(=O)c2cnc(NS(=O)(=O)CCO)cc2N2CCC3(CC2)CC3)cc1N1CCC2(CC2)C1 [Compound 614],≤ 0.1 µM
8,CSc1ccc(NC(=O)c2cnc(NS(=O)(=O)CCO)cc2N2CCC3(CC2)CC3)cc1OC1CCC1 [Compound 615],≤ 0.1 µM
9,CSc1ccc(NC(=O)c2cnc(NS(=O)(=O)CCO)cc2N2CCC3(CC2)CC3)cc1N1CCC(C)(F)C1 (stereo not drawn) [Compound 616],≤ 0.1 µM
10,CSc1ccc(NC(=O)c2cnc(NS(=O)(=O)CCO)cc2N2CCC3(CC2)CC3)cc1N1CCC(F)CC1 [Compound 617],≤ 0.1 µM
11,CSc1ccc(NC(=O)c2cnc(NS(=O)(=O)CCO)cc2N2CCC3(CC2)CC3)cc1NC(C)(C)CO [Compound 619],≤ 0.1 µM
12,CSc1ccc(NC(=O)c2cnc(NS(=O)(=O)CCO)cc2N2CCC3(CC2)CC3)nc1N1CCC(F)(F)CC1 [Compound 625],≤ 0.1 µM
13,CSc1ccc(NC(=O)c2cnc(NS(=O)(=O)CCO)cc2N2CCC3(CC2)CC3)nc1N1CC(F)(F)C1 [Compound 628],≤ 0.1 µM
14,CSc1ccc(NC(=O)c2cnc(NS(=O)(=O)CCO)cc2N2CCC3(CC2)CC3)nc1OCCC(F)(F)F [Compound 629],≤ 0.1 µM
15,CSc1ccc(NC(=O)c2cnc(NS(=O)(=O)CCO)cc2N2CCC3(CC2)CC3)nc1N1CCC2(CC2)C1 [Compound 630],≤ 0.1 µM

# Next, values leading:
row,IC50,SMILES
1,≤ 0.1 µM,CSc1ccc(NC(=O)c2ccc(NS(=O)(=O)[C@@H](C)CO)cc2N2CCC3(CC2)CC3)nc1N1CCO[C@H](C)C1 [Compound 607]
2,≤ 0.1 µM,CSc1ccc(NC(=O)c2ccc(NS(=O)(=O)[C@H](C)CO)cc2N2CCC3(CC2)CC3)nc1N1CCO[C@H](C)C1 [Compound 608]
3,≤ 0.1 µM,CSc1ccc(NC(=O)c2cnc(NS(=O)(=O)CCO)cc2N2CCC3(CC2)CC3)cc1N1CCO[C@H](C)C1 [Compound 610]
4,≤ 0.1 µM,CSc1ccc(NC(=O)c2cnc(NS(=O)(=O)CCO)cc2N2CCC3(CC2)CC3)cc1N1CCO[C@@H](C)C1 [Compound 611]
5,≤ 0.1 µM,CSc1ccc(NC(=O)c2cnc(NS(=O)(=O)CCO)cc2N2CCC3(CC2)CC3)cc1N1CC2CC2C1 (stereo not drawn) [Compound 618]
6,≤ 0.1 µM,CSc1ccc(NC(=O)c2cnc(NS(=O)(=O)CCO)cc2N2CCC3(CC2)CC3)cc1N1CCOCC1 [Compound 620]
7,≤ 0.1 µM,CSc1ccc(NC(=O)c2cnc(NS(=O)(=O)[C@@H](C)CO)cc2N2CCC3(CC2)CC3)cc1N1CCC(F)(F)CC1 [Compound 621]
8,≤ 0.1 µM,CSc1ccc(NC(=O)c2cnc(NS(=O)(=O)[C@H](C)CO)cc2N2CCC3(CC2)CC3)cc1N1CCC(F)(F)CC1 [Compound 622]
9,≤ 0.1 µM,CSc1ccc(NC(=O)c2cnc(NS(=O)(=O)[C@@H](C)CO)cc2N2CCC3(CC2)CC3)cc1N1CCO[C@H](C)C1 [Compound 623]
10,≤ 0.1 µM,CSc1ccc(NC(=O)c2cnc(NS(=O)(=O)[C@H](C)CO)cc2N2CCC3(CC2)CC3)cc1N1CCO[C@H](C)C1 [Compound 624]
11,≤ 0.1 µM,CSc1ccc(NC(=O)c2cnc(NS(=O)(=O)CCO)cc2N2CCC3(CC2)CC3)nc1N1CCO[C@H](C)C1 [Compound 626]
12,≤ 0.1 µM,CSc1ccc(NC(=O)c2cnc(NS(=O)(=O)CCO)cc2N2CCC3(CC2)CC3)nc1N1CCO[C@@H](C)C1 [Compound 627]
